Source: patent US9919066B2, “Electroporation of tissue products” (LifeCell Corporation, priority 2013, dated 2018)

Legend:
[1] = system: bacteria present on tissue samples; experiment: Effect of pulse voltage on bacteria counts of porcine dermis electroporated in PAA; type: cell-based; settings: 0.2% PAA; for bacteria count: 10 ms, triplicates
Description: (§1) To determine the impact of pulse voltage on bacteria present on tissue samples, 1 cm by 1 cm pieces of porcine dermis (1 mm thickness) were electroporated in 2 ml of 0.2% peracetic acid (PAA) at three different pulse voltages: 0V, 40V and 80V. The 0V samples were used as a control condition. Electroporation plates (1 cm by 2 cm conducting metal plates) were set 2 mm apart and a 1 mm thick piece of tissue was placed between them. Electrical pulses were delivered for 10 ms. All conditions were tested in triplicates.
Following electroporation each piece of tissue was removed and rinsed in a PAA neutralizing wash for 5 minutes and then placed in 10 ml of phosphate buffered saline (PBS). The purpose of the neutralizing wash was to prevent further bacterial kill from residual PAA following electroporation that could confound the results.
Stomaching was used to extract the bacteria from each piece of tissue and bacteria counts were performed following incubation of culture plates for 2 days at 37° C. Stomaching is a mechanical extraction method used to remove microorganisms from samples of foods, fabrics, swabs, or other soft materials such as human or animal tissue. […] The resulting compression and shearing forces elute deep-seated bacteria. Once the agitation process is completed, samples of the eluent are taken for microbial enumeration and subsequent identification.

[2] = system: bioburden (bacteria) on porcine dermis; experiment: Effect of pulse length on bioburden of porcine dermis electroporated in PAA; type: cell-based; settings: 0.2% PAA
Description: […] 0 ms pulses were used as a control condition. All conditions were tested in triplicates.
Electroporation plates (1 cm by 2 cm conducting metal plates) were set 2 mm apart and a 1 mm thick piece of tissue was placed between them. Pulse voltage was set at 80V. Following electroporation each piece of tissue was removed and rinsed in a PAA neutralizing wash for 5 minutes and then placed in 10 ml of PBS.
Stomaching was used to extract the bacteria from each piece of tissue and bacteria counts were performed following incubation of culture plates for 2 days at 37° C. […] Minimal bacterial colony forming units (CFU) were detected on tissue samples following 15 ms pulse.

[3] = H&E histological examination of porcine dermis after electroporation; settings: 0.2% PAA
Description: FIG. 1A-C show hematoxylin and eosin (H&E) staining of 1 cm by 1 cm samples of porcine dermis after exposure for 15 milliseconds to one electrical pulse of 0V (FIG. 1A), 40V (FIG. 1B), or 80V (FIG. 1C), according to certain embodiments of the present disclosure.
as §1
The tissue samples exposed to 40V and 80V pulse voltages had 0 bacteria. […] Porcine dermis was also stained using hematoxylin and eosin (H&E).

For CC(=O)OO [PAA, peracetic acid], the bacterial colonies ([1]; 0V (control condition, no pulse)) was “too numerous to count”, the bacteria count ([1]; 40V pulse) was 0 and the bacteria count ([1]; 80V pulse) was 0. The “Viable Cell Count” value ([2]; 80V, pulse length 1 ms, 100 pulses) was 430 CFU, the “Viable Cell Count” value ([2]; 80V, pulse length 5 ms, 1 pulse) was 300 CFU and the “Viable Cell Count” value ([2]; 80V, pulse length 10 ms, 1 pulse) was 140 CFU. The “Viable Cell Count” value ([2]; pulse length 0 ms, no pulses (control condition)) was 26000 CFU, the “changes in the collagen structure (H&E histology)” value ([3]; exposure to 40 volts) was “no detectable change” and the “changes in the collagen structure (H&E histology)” value ([3]; exposure to 80 volts) was “potential changes in the collagen structure”.
